Entries after “also recorded” stand apart in the source; their conditions may differ. Where two headings read alike, the source gives them in different places.

The values below come from patent US4973675A, “Hybrid nitrosoureidoanthracyclines having antitumor activity” (University of Tennessee Research Center, priority 1989, dated 1990).

For series [1], the system named is human CEM leukemic lymphocytes. The experiment in a line: Growth inhibition of human CEM leukemic lymphocyte suspension cultures, 48 h continuous drug exposure (ID50). Format: cell-based. The protocol: (§1) Culture and bioassay conditions were as described in Cancer Chemotherapy Pharmacology 20:277 (1987) "Comparative Effects of Adriamycin and DNA-nonbinding Analogues on DNA, RNA, and Protein Synthesis in Vitro", Israel et al., except that cell counts were determined by hemocytometer rather than by automated cell counting.

The test system of series [2] is murine L1210 leukemia cells. The experiment in a line: Clonogenic assay with cultured murine L1210 leukemia cells, 1 h drug exposure (LD90). Format: cell-based. On the procedure:
as §1
+Dose killing 90% of clonogens, 1hr. drug exposure.

A further series concerns red blood cells. The experiment in a line: Hematotoxicity study in non-tumor-bearing animals, red blood cell count. It counts as in vivo, mice. The settings on record: 3 dose levels. The text has this:
Clinically and in laboratory animals, anthracycline antibiotics and chloroethylnitrosourea alkylating agents currently used in medical oncology are known to be strongly myelosuppressive, with the effects of the alkylating agents on suppression of bone marrow activity being particularly profound and long-lasting.

The next series concerns DNA topoisomerase II. Briefly: Drug-stimulated topoisomerase II-mediated DNA cleavage assay (end-labeled PMC41 DNA). It counts as biochemical. As to conditions: summary of biochemical studies.
The nature of series [3]: Solubility in water or saline. Format: physicochemical. The protocol:
Accordingly, the compounds are formulated for administration by dissolving the compound in a pharmaceutically acceptable non-toxic carrier which contains a surfactant. The present inventors employ a formulation of 10% Cremaphor EL (a polyhydroxylated castor oil derivative) available from BASF Chemicals, 10% ethanol and 80% aqueous media (sterile water or saline solution). That quantity of the compound desired for establishing an effective dose is dissolved in a 1:1 mixture of Cremaphor EL and ethanol. Thereafter, sufficient aqueous medium is added with stirring to develop a final formulation containing 80% aqueous medium. This formulation is administered parenterally.

`COc1cccc2c1C(=O)c1c(O)c3c(c(O)c1C2=O)C[C@@](O)(C(C)=O)C[C@@H]3O[C@H]1C[C@H](NC(=O)N(CCCl)N=O)[C@H](O)[C@H](C)O1` [AD 312, 2-chloroethylnitrosoureidodaunorubicin]: in series [1] (CEM in vitro), the “growth inhibitory activity” value is “moderate to marked growth inhibitory activity; also recorded: somewhat less active”. The IC50 in series [1] (Homo sapiens, Lymphocyte, CEM, 48 hr continuous drug exposure (Table 2), read-out: ID50 (the source's name)) is 90 nM. The “clonogenic cell kill” value in series [2] (L1210, 1 hour exposure) is reported as “most potent of the six agents compared”. In series [2] (Mus musculus, L1210, 1 hr drug exposure, read-out: L1210 LD90 (dose killing 90% of clonogens)), the IC90 turned out to be 260 nM. Also, the “change in red blood cell counts” value in the series on red blood cells is on record as “No significant change in red blood cells counts”. Besides, the “DNA topoisomerase II-inhibitory and alkylating activity” value in the series on DNA topoisomerase II was “clearly establish the DNA topoisomerase II-inhibitory activity and alkylating activity”. Besides, the “solubility” value in series [3] (water or saline solution) is “essentially insoluble in water or saline solution”; in series [3] (water, of the order of, read-out: solubility in water) it was less than 25 µg/mL.
